Data reported in paper PMC6724197 (Journal of chemical ecology, 2018).

Experiments:
[1] = system: mountain cottontails (Sylvilagus nuttallii); experiment: Two-choice feeding trial: single monoterpene diet vs monoterpene mixture diet; assay type: in vivo
[2] = system: pygmy rabbits (Brachylagus idahoensis); experiment: as above; assay type: in vivo; details: for percentage of single monoterpene in the diet relative to monoterpene mixture: pygmy rabbits
digestive enzyme = details: in a generalist more than in a specialist avian folivore; ref Kohl et al. 2015; cited from earlier work

Compound | amount of monoterpene mixture consumed relative to single monoterpene diet [1] | proportion consumed by pygmy rabbits relative to cottontails ([2]; pygmy rabbits vs mountain cottontails) | percentage of single monoterpene in the diet relative to monoterpene mixture [2] | effect on digestive enzyme activity (digestive enzyme) | amount of single monoterpene diet consumed relative to monoterpene mixture [1]
C=C1CCC2CC1C2(C)C (stereo not drawn) [β-pinene] | three times |  |  |  | 
CC12CCC(CC1=O)C2(C)C (centres unmarked) [camphor] | twice | twice | twice | reduced digestive enzyme activity | 
CC12CCC(CC1)C(C)(C)O2 [1,8-cineole] |  |  | twice |  | 24 times
C=C1C2CCC(C2)C1(C)C (centres unmarked) [camphene] |  |  |  |  | more than five times
